Test results as given in patent publication US8476240B2, “Histidine related compounds for identifying and blocking amyloid beta ion channels” (priority 2008, dated 2013).
“Also recorded” adds a separate entry of the source. Where two headings read alike, the source gives them in different places. Residues, ends and D or L forms follow the SMILES beside them.

Columns and labels:
Aβ channel = test: Aβ channels incorporated into planar lipid bilayers, ionic current recording; assay type: biochemical; details: for time to block the flow of ionic charges through Aβ channels: 41.5 μM (FIG. 5B left plot); for reversibility of Aβ channel blockage after washing the chamber / blocking of Aβ channel current activity: planar lipid bilayer; for reversibility of Aβ channel blockage after washing the chamber: after washing off the blocker; for blocking of Aβ channel current activity: zero membrane potential; for blocking of the flow of ionic charges conducted by Aβ channels: His 41.5 μM, NAHIS compounds 16.6 μM (FIG. 5B); for time to reduce the flow of ionic charges through the membrane by 50%: 16.6 μM
Method: Planar Lipid Bilayer Methodology: A suspension of palmitoyloleoyl phosphatidylserine and palmitoyloleoyl phosphatidylethanolamine, (Avanti, Alabaster, Ala.) 1:1, in η-decane was prepared. This suspension was applied to an orifice of about 100-120 μm in diameter with a Teflon film separating two compartments, 1.2 ml volume each. The ionic solutions in the compartments contained asymmetrical concentrations of CsCl (200cis/50trans mM) and symmetrical 0.5 mM CaCl2 and 5 mM K-HEPES, pH 7. The two ionic compartments were electrically connected to the input of a voltage clamp amplifier. Current was recorded using a patch clamp amplifier and data were stored on computer disk memory. Off-line analysis of the channel activity was carried out using the software package pClamp (Axon Instruments, Foster City, Calif.). Incorporation of Aβ peptide into the bilayer was obtained by adding an aliquot of proteoliposome (Aβ-liposome) suspension to the solution in the cis side of the planar lipid bilayer chamber and stirring.
Preparation of Proteoliposomes: Liposomes were prepared by hydration of air-dried palmitoyloleoyl phosphatidylserine (10 mg) with 1 M potassium aspartate, pH 7.0 (1 ml), followed by water sonication for 5 min. The liposome suspension (50 μl) was mixed with a stock aqueous solution of Aβ peptide (1 mg/ml, obtained from Bachem, Torrance, Calif. and from AnaSpec, San Jose, Calif.), followed by sonication.
Based on the theoretical model proposed by Durell et al. (1994), the predicted pore region of the Aβ channel is made of the hydrophilic structure composed of residues 1-16. The structure formed by a radial polymer of four to six Aβ subunits predicts that rings of His residues surround and form the path for the ions passing through the pore. […] This interaction will block the entrance to the Aβ pore, and consequently affect the flow of current through the Aβ channel. Therefore, various compounds of known His coordinating capacity were studied for their interaction with Aβ channels incorporated into planar lipid bilayers. No membrane potential difference was applied to the lipid bilayers, to avoid any disturbing effect the membrane potential may have on the channel activity and in the conformations of the channel.
Here the effectiveness of the His-coordinating and His-related compounds was studied in terms of the time required to block the Aβ channel currents. […] When Aβ channels are incorporated into artificial membranes, they form multi-conductance systems. This is manifested by frequently fluctuating conductance between specific levels. […] The results were analyzed by an alternative procedure that quantifies the total ionic current flowing through the Aβ channel incorporated into the artificial lipid membrane at any given time. For this purpose, we integrated the total ionic current flowing through the membrane and averaged the amount of charge conducted in consecutive time intervals of 8 msec duration.
Planar Lipid Bilayer Methodology and Preparation of Proteoliposomes: The experiments were performed as described previously except that the suspension of palmitoyloleoyl phosphatidylserine and palmitoyloleoyl phosphatidylethanolamine was applied to an orifice of about 80-100 μm in diameter with a Teflon film separating two compartments. In addition, the liposome suspension (50 μl) was mixed with a stock aqueous solution of Aβ40 (1 mg/ml; obtained from Invitrogen, Carlsbad, Calif.).

[1] = system: PC12 cells, cortical and hippocampal neurons; test: cells; details: for protection of cells from Aβ cytotoxicity: three days of incubation, XTT and LDH, three cell types; for protection of cells from Aβ cytotoxicity / concentration required for 50% protection (EC50): Aβ peptide 5 μM; for concentration required for 50% protection (EC50): three different types of cells, three days
Method: Cell culture: PC 12 cells, derived from a transplantable rat pheochromocytoma (ATCC # CRL 1721), were cultured in the recommended ATCC medium. Primary cultures of hippocampal and cortical neurons from […] rat brains were grown in neurobasal medium/B27 (GIBCO). For neurons preparation, pregnant rats were anesthetized and killed to extract the fetuses. For pain alleviation, the animals were anesthetized following recommendations in the 2000 Report of the American Veterinary Medical Association Panel on Euthanasia. Brains from the fetuses were dissected out and neuronal cell cultures prepared as in a previously described protocol (Simakova and Arispe, 2006).
Cell viability assays: The percentage of cells protected from Aβ-induced cell death by various treatments was evaluated by means of a colorimetric XTT assay (Cell Proliferation Kit II, Roche, Mannheim, Germany). The cytotoxicity was also directly measured by the release of lactate dehydrogenase (LDH) from the cytosol into the media (Cytotoxicity Detection Kit (LDH), Roche, Mannheim, Germany).
Cell viability was examined using two different assays. These were the colorimetric XTT assay that quantifies metabolically active cells, and an assay that measures the release of lactate dehydrogenase (LDH) from the cytosol into the media, which evaluates the cell membrane integrity. […] The left panels (A, C and E) show the results from the XTT assay expressed as a percentage of cytotoxicity, and the right panels (B, D and F) show the results from the measurements of LDH released from cells into the media expressed as a percentage of protection of cells.

PC12 cells [2] = test: Protection of PC12 cells from Aβ cytotoxicity (LDH release / cell viability assay); assay type: cell-based
Method: Previous studies have shown that the native peptide fragments from the Aβ polypeptide, NA4 (SEQ ID NO: 3) and NA7 (SEQ ID NO: 4), are able to block Aβ channel activity and protect cells from Aβ cytotoxicity. […] The concentration required for 50% protection (half maximal effective concentration, EC50) for NAHIS04 was less than 1 μM (Panel B). It was also between 2-3 times less than the EC50 for either NA4 or NA7.

PC12 cells [3] = test: Aβ-induced intracellular free calcium change in FURA-2AM loaded PC12 cells; assay type: cell-based, rat; details: Aβ 7.66 μM; for block of Aβ-induced intracellular calcium increase: compound 16.66 μM, 15 minute time course
Method: Intracellular Free Calcium measurements: Cells were plated on glass cover slips coated with poly-L-lysine and loaded with 2 μM FURA-2AM (Molecular Probes) calcium sensitive probe in incubation buffer (135 mM NaCl, 5 mM KCl, 2.5 mM CaCl2, 1.2 mM MgCl2, 10 mM glucose, 10 mM Hepes, pH 7.4). After 30 min of loading period, cells were treated with Aβ (7.66 μM). The time course of changes in the emission from FURA-2AM was observed using an inverted epi-fluorescence/phase contrast microscope equipped with a low-light level integrating CCD camera+microphotometer assembly (InCy I/P-2 Imaging & Photometry System, Intracellular Imaging INC.)
A 15 minute time course experiment was performed of the intracellular free calcium change in six FURA-2AM loaded PC 12 cells before and after the addition of Aβ (7.66 μM) and Aβ+His-related compound (16.66 μM).
Experiments in this Example were performed to determine if there was concentration dependence blockage of the Aβ-induced intracellular calcium response by NAHIS04. A time course of the intracellular free calcium change was taken in FURA-2AM loaded PC12 cells before and after the addition of Aβ (7.66 μM) to media containing different concentrations of NAHIS04. FIG. 11 illustrates that the concentration of the Aβ channel blocker is important and that the most efficient concentration of NAHIS04 for the blockage occurred at >5 μM.

[Cl][Ni][Cl] [Ni^2+, NiCl2, reference compound]
time to block the flow of ionic charges through Aβ channels (Aβ channel): 120 s
reversibility of Aβ channel blockage after washing the chamber (Aβ channel): irreversible
reversibility of Aβ channel blockage after washing the chamber (Aβ channel; listed as nickel): irreversibly block
blocking of Aβ channel current activity (Aβ channel): full block of the channel
toxicity of the compound to cells ([1]; high concentrations): cell-dependent toxicity at high concentrations
protection of cells from Aβ cytotoxicity [1]: fully protect the cells against Aβ cytotoxicity

CC(=O)N[C@@H](CO)C(=O)NCC(=O)N[C@@H](Cc1ccc(O)cc1)C(=O)N[C@@H](CCC(=O)O)C(=O)N[C@H](C(=O)N[C@@H](Cc1c[nH]cn1)C(=O)N[C@@H](Cc1c[nH]cn1)C(N)=O)C(C)C [NA4mod, Ac-SGYEVHH-CONH2] (Ac-SGYEVHH-NH2)
percent protection of PC12 cells from Aβ cytotoxicity (PC12 cells [2]; Example 9, cell viability assay (FIG. 13)): percent protection is similar to the protection shown by NAHIS04

N[C@@H](Cc1c[nH]cn1)C(=O)O [His, L-histidine, reference compound]
blocking of the flow of ionic charges conducted by Aβ channels (Aβ channel): very slow-acting or had almost no channel-blocking capacity
blocking of Aβ channel current activity (Aβ channel): only affect the current peaks of 5.8 and 4.2 pA; also recorded: mildly reduces the Aβ channel activity

CC(=O)N[C@@H](Cc1c[nH]cn1)C(=O)N[C@@H](Cc1c[nH]cn1)C(N)=O [NAHIS02, Ac-His-His-CONH2]
block of Aβ-induced intracellular calcium increase (PC12 cells [3]): has the capacity to block Aβ-induced intracellular calcium increase
time to reduce the flow of ionic charges through the membrane by 50% (Aβ channel): 125 s
effect on Aβ channel current peaks (Aβ channel; 16.66 μM): removed all current peaks
time to reduce the Aβ channel activity to occasional channel openings (Aβ channel; 16.66 μM): several minutes
time to totally block the Aβ channel activity (Aβ channel; 16.66 μM): less than three
reversibility of Aβ channel blockage after washing the chamber (Aβ channel): reversed; also recorded: some recovery of channel activity
blocking of Aβ channel current activity (Aβ channel): efficiently block the multiple conductances
concentration required for 50% protection (EC50) [1]: below the micromolar levels

c1c[nH]cn1 [imidazole, reference compound]
time to block the flow of ionic charges through Aβ channels (Aβ channel): 30 s
reversibility of Aβ channel blockage after washing the chamber (Aβ channel): irreversibly block; also recorded: irreversible
blocking of Aβ channel current activity (Aβ channel): full block of the channel
EC50 ([1]; Rattus norvegicus, PC-12, 72 h, read-out: concentration required for 50% protection (EC50)): 2 to 3 µM

CC(=O)N[C@@H](Cc1c[nH]cn1)C(N)=O [NAHIS01, Ac-His-CONH2]
blocking of the flow of ionic charges conducted by Aβ channels (Aβ channel): does not fully prevent the flow of ionic charges
blocking of Aβ channel current activity (Aβ channel): more effective at reducing all current peaks at much lower concentrations than unmodified His; also recorded: did not operate as a full channel blocker; also recorded: very efficient at blocking the Aβ ion channel

CC(C)[C@H](NC(=O)[C@H](CCC(=O)O)NC(=O)[C@H](Cc1ccc(O)cc1)NC(=O)CNC(=O)[C@@H](N)CO)C(=O)N[C@@H](Cc1c[nH]cn1)C(=O)N[C@@H](Cc1c[nH]cn1)C(=O)O [NA4, SGYEVHH, reference compound] (H-SGYEVHH-OH)
protection of PC12 cells from Aβ cytotoxicity (PC12 cells [2]; Example 5, LDH release, three days): not as effective at blocking the Aβ channel as NAHIS04

CC(=O)N[C@@H](Cc1c[nH]cn1)C(=O)N[C@@H](Cc1c[nH]cn1)C(=O)N[C@@H](Cc1c[nH]cn1)C(=O)N[C@@H](Cc1c[nH]cn1)C(N)=O [NAHIS04, Ac-His-His-His-His-CONH2] (Ac-HHHH-NH2)
most efficient concentration for blockage of the Aβ-induced intracellular calcium response (PC12 cells [3]; 0.83 to 6.64 μM tested): > 5 µM
time to reduce the flow of ionic charges through the membrane by 50% (Aβ channel): 15 s
effect on Aβ channel current peaks (Aβ channel; 16.66 μM): removed all current peaks
time to reduce the Aβ channel activity to occasional channel openings (Aβ channel; 16.66 μM): 20 s
speed of 50% reduction of ionic charge flow compared to NAHIS02 (Aβ channel; NAHIS04 versus NAHIS02): eightfold
reversibility of Aβ channel blockage after washing the chamber (Aβ channel): irreversible; also recorded: stayed fully blocked after the chamber was washed
blocking of Aβ channel current activity (Aβ channel): efficiently block the multiple conductances
protection of cells from Aβ cytotoxicity [1]: fully protected the three different types of cells against Aβ
concentration required for 50% protection (EC50) [1]: below the micromolar levels
protection of PC12 cells from Aβ cytotoxicity (PC12 cells [2]): showed better protection of the cells
EC50 (PC12 cells [2]; PC12 cells, LDH release, three days of incubation, read-out: concentration required for 50% protection (EC50)): < 1 µM

CC(=O)N[C@@H](Cc1cncn1C)C(=O)N[C@@H](Cc1cncn1C)C(N)=O [NAHIS02-(π-Met), Ac-His-π-Met-His-π-Met-CONH2]
block of Aβ-induced intracellular calcium increase (PC12 cells [3]): has lost this ability
blocking of the flow of ionic charges conducted by Aβ channels (Aβ channel): showed no blocking capacity
blocking of Aβ channel current activity (Aβ channel): did not affect the Aβ channel activity even at a fourfold higher concentration; also recorded: unable to block the Aβ channel activity even at a fourfold higher concentration
protection of PC12 cells against Aβ (PC12 cells [2]; Example 6, LDH assay, Aβ40 for 24 hrs): did not protect the cells against Aβ
